In PubChem BioAssay AID2060340 (Molecular Pharmacology Branch, DTP, NCI, 2025) one finds viability, T/C and IC50 data, which are given here for 15 compounds.

The test system of the test is 349418-098-R-PDC spheroids, viability, % test/control. Put plainly: Anticancer human tumor 349418-098-R-PDC patient-derived lung adenocarcinoma cell line growth inhibition [IpAb]. To be noted: spheroids with HUVEC and MSC; for viability, T/C: stronger effect = lower value; for pIC50: curve of compound; for IC50: compound alone, run of 05/18/2021. The source says: Combinatorial screen of targeted agents with ipatasertib and abemaciclib in multi-cell type tumor spheroids
A high-throughput screen of multi-cell type tumor spheroids was designed to identify active combinations of targeted small molecules and ipatasertib or abemaciclib. Complex spheroids include a stromal component modeled by human endothelial cells (HUVEC) and fibroblasts modeled by human mesenchymal stem cells (MSCs). The concentration ranges selected for each drug and investigational agent were based upon clinically achievable concentrations if the clinical Cmax of the agent was known.
Compounds. The drugs and investigational agents: ipatasertib (NSC767898), abemaciclib(NSC768073), selumetinib (NSC741078), trametinib (758246), adavosertib (NSC754352), everolimus (NSC733504), sapanisertib (NSC764658), vemurafenib (NSC761431), venetoclax (NSC766270), copanlisib (NSC809693), apelisib (NSC765974), palbociblib (NSC758247), vemurafenib (NSC761431), dabrafenib (NSC764134), ravoxertinib (NSC781343), BMS-387032 (NSC767048), sotorasib (NSC818433), talazoparib (NSC767125) and afursertib (NSC778305), were obtained from the National Cancer Institute (NCI) Developmental Therapeutics Program Chemical Repository. The FDA-approved anticancer drug set is available from the NCI Developmental Therapeutics Program. […] The stock solutions were prepared in dimethyl sulfoxide (DMSO, Sigma-Aldrich, St. Louis, MO, cat. D2650) at 800-fold the tested concentration and stored at -70 degrees C prior to their use. All drugs and investigational agents were tested over a range starting from a high concentration at or near the clinical Cmax and decreasing in half-log increments. If the clinical Cmax for an agent had not been determined, the highest concentration tested was 10 microM.
NCI60 Cell Culture. NCI60 cell lines were obtained from the NCI Developmental Therapeutics Program Tumor Repository. For each lot of cells, the Repository performed Applied Biosystems AmpFLSTR Identifiler testing with PCR amplification to confirm consistency with the published Identifier STR profile for each cell line. Cells were kept in continuous culture for no more than 20 passages. The optimal seeding densities for each of the cell lines at each time point assessed were determined prior to performing the concentration response studies. Briefly, the NCI60 human tumor lines were grown as monolayers in RPMI 1640 medium supplemented with 10% FBS and 2 mmol/L L-glutamine.
An additional 9 lines were from the NCI60 cell line panel including MDA-MB-231 breast carcinoma, MDA-MB-468 breast carcinoma, MCF7 breast carcinoma, Hs578T breast carcinoma, MALME-3M melanoma, SK-MEL-2 melanoma, SK-OV-3 ovarian carcinoma, DU-145 prostate carcinoma, PC-3 prostate carcinoma, all cell lines along with major genetic alterations are listed on Table 2. Pooled donor human umbilical vein endothelial cells (HUVEC, Lonza, cat. CC-2519) and human mesenchymal stem cells (hMSC, Lonza, cat. PT-2501) were purchased from Lonza (Walkersville, MD).
PDMR cell lines were grown in complete medium (DC medium): Dulbecco's modified Eagle's medium (DMEM)/F12 supplemented with 5% fetal bovine serum (FBS), 2 mM L-glutamine, 100 U/mL penicillin and 100 µg/ml streptomycin, 0.4 µg/ml hydrocortisone, 10 ng/ml epidermal growth factor (EGF) recombinant human protein, 24 µg/mL adenine, and 0.1 mg/mL primocin. During culture from frozen stock vials, PDMR cells were cultured in the same medium containing 10 µM Y-27632 (see Table 3). The PDCs were cultured in complete DMEM/F12 media without 10 microM Y-27632 dihydrochloride for at least two passages prior to the screen. The pooled donor HUVEC and hMSC were cultured in endothelial cell growth medium 2 (PromoCell, Heidelberg, Germany, cat. C-22011) and mesenchymal stem cell growth medium 2 (PromoCell, cat. C-28009), respectively. For all experiments, HUVEC and hMSC were used at passages </=5.
[…]

A word on the viability, T/C: it is the result in the treated group divided by that in the control group, in per cent. The term pIC50 denotes the IC50 on a negative log10 scale, so that one unit is a factor of ten. The IC50 is the concentration at which inhibition is half-maximal.

pIC50: −log10 of the molar value. Several values for one entry are separate records, joined by “and”; a condition that tells them apart may be missing. Equal values may be shown once. Some results are limits rather than exact numbers.
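Further: spheroids exposed to compounds for 7 days.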

In the case of `C=CC(=O)N1CCN(c2nc(=O)n(-c3c(C)ccnc3C(C)C)c3nc(-c4c(O)cccc4F)c(F)cc23)C(C)C1` (stereo not given), the pIC50 was 5.02 and 5.15. Besides, where the note is “compound 0.0316 µM”, the viability, T/C is 109% and 107%. Also, under “compound 0.1 µM”, the viability, T/C is 107% and 104%. Also, the viability, T/C (compound 0.316 µM) is 105% and 94.1%. The viability, T/C (compound 1 µM) was 102% and 96.4%. The viability, T/C (compound 3.16 µM) was 72.9% and 76.2%. For the setting “compound 10 µM”, the viability, T/C was 48.9% and 38%.
Turning to `C=CCn1c(=O)c2cnc(Nc3ccc(N4CCN(C)CC4)cc3)nc2n1-c1cccc(C(C)(C)O)n1`, the pIC50 is 6.74 and 6.69. Further, the viability, T/C (compound 0.0316 µM) was 91.8% and 105%. Also, the viability, T/C (compound 0.1 µM) was 84.5% and 88.7%. Besides, the viability, T/C (compound 0.316 µM) is 18.8% and 26.7%. Further, the viability, T/C (compound 1 µM) was 5.04% and 4.87%. For the same compound, the viability, T/C (compound 3.16 µM) is 4.87% and 4.84%. The viability, T/C (compound 10 µM) is 6.19% and 4.54%.
As for `CC(=O)c1c(C)c2cnc(Nc3ccc(N4CCNCC4)cn3)nc2n(C2CCCC2)c1=O`, the pIC50 is 7.84 and 7.74. In addition, under “compound 0.000949 µM”, the viability, T/C is 97.3% and 86.4%. In addition, the viability, T/C (compound 0.003 µM) was 82.9% and 78.7%. Moreover, the viability, T/C (compound 0.00949 µM) is 61.7%. Moreover, the viability, T/C (compound 0.03 µM) is 30.8% and 42.2%. In addition, the viability, T/C (compound 0.0949 µM) is 24.5% and 21.1%. Further, the viability, T/C (compound 0.3 µM) was 16.8% and 16.9%.
Turning to `CC(C)(C)c1cnc(CSc2cnc(NC(=O)C3CCNCC3)s2)o1`, the pIC50 is 7.29 and 7.27. In addition, the viability, T/C (compound 0.00949 µM) was 105% and 108%. Under “compound 0.03 µM”, the viability, T/C was 90.5% and 85.3%. For the setting “compound 0.0949 µM”, the viability, T/C was 2.46% and 15.2%. The viability, T/C (compound 0.3 µM) is 2.23% and 2.41%. In addition, the viability, T/C (compound 0.949 µM) was 3.07% and 3.11%. Also, under “compound 3 µM”, the viability, T/C is 2.08% and 2.15%.
Turning to `CC(C)NCC(C(=O)N1CCN(c2ncnc3c2C(C)CC3O)CC1)c1ccc(Cl)cc1` (stereo not given), the IC50 was 350 nM [middle of 13 runs]. In addition, where the note is “compound 0.1 µM”, the viability, T/C was 84.9% [middle of 13 runs]. In addition, the viability, T/C (compound 1 µM) is 24.5% [middle of 13 runs]. Besides, the viability, T/C (compound 3.16 µM) is 11.8% [middle of 13 runs]. Moreover, under “compound 10 µM”, the viability, T/C was 7.07% [middle of 11 runs].
As for `CC(C)n1nc(-c2ccc3oc(N)nc3c2)c2c(N)ncnc21`, the pIC50 is 8.76 and 8.85. The viability, T/C (compound 0.000316 µM) was 93.8% and 89.8%. Moreover, for the setting “compound 0.001 µM”, the viability, T/C was 72.9% and 60.3%. Also, where the note is “compound 0.00316 µM”, the viability, T/C is 24.7% and 26.2%. Moreover, the viability, T/C (compound 0.01 µM) is 11% and 10.4%. Also, the viability, T/C (compound 0.0316 µM) was 8.02% and 7.35%. The viability, T/C (compound 0.1 µM) is 7.57% and 6.78%.
In the case of `CC1(C)CCC(CN2CCN(c3ccc(C(=O)NS(=O)(=O)c4ccc(NCC5CCOCC5)c([N+](=O)[O-])c4)c(Oc4cnc5[nH]ccc5c4)c3)CC2)=C(c2ccc(Cl)cc2)C1`, the pIC50 was 5.29 and 5.26. In addition, where the note is “compound 0.0316 µM”, the viability, T/C was 110% and 115%. The viability, T/C (compound 0.1 µM) was 109% and 94.8%. For the same compound, under “compound 0.316 µM”, the viability, T/C was 107% and 101%. For the setting “compound 1 µM”, the viability, T/C was 103% and 106%. For the same compound, the viability, T/C (compound 3.16 µM) was 82.2% and 92.3%. The viability, T/C (compound 10 µM) was 6.95% and 3.46%.
Turning to `CCCS(=O)(=O)Nc1ccc(F)c(C(=O)c2c[nH]c3ncc(-c4ccc(Cl)cc4)cc23)c1F`, the pIC50 is 5.73 and 5.96. For the same compound, the viability, T/C (compound 0.0316 µM) was 69.3% and 61.6%. Besides, the viability, T/C (compound 0.1 µM) was 52% and 49.9%. Further, the viability, T/C (compound 0.316 µM) was 51.7% and 55.5%. Also, for the setting “compound 1 µM”, the viability, T/C is 49.4% and 45.2%. Besides, the viability, T/C (compound 3.16 µM) was 50.4% and 46.2%. Also, where the note is “compound 10 µM”, the viability, T/C was 22.7% and 19.6%.
As to `CCN1CCN(Cc2ccc(Nc3ncc(F)c(-c4cc(F)c5nc(C)n(C(C)C)c5c4)n3)nc2)CC1`, the IC50 is 28.5 nM [middle of 12 runs]. Moreover, the viability, T/C (compound 0.01 µM) is 74.5% [middle of 13 runs]. Besides, where the note is “compound 0.0316 µM”, the viability, T/C was 44.2% [middle of 13 runs]. Besides, the viability, T/C (compound 0.1 µM) was 26.4% [middle of 13 runs]. For the same compound, the viability, T/C (compound 0.316 µM) was 19.7% [middle of 12 runs]. Moreover, the viability, T/C (compound 1 µM) was 15.5% [middle of 13 runs].
As to `COc1c(OCCCN2CCOCC2)ccc2c3n(c(=NC(=O)c4cnc(N)nc4)nc12)CCN3`, the pIC50 was 8.04 and 7.92. Also, under “compound 0.00316 µM”, the viability, T/C is 98.7% and 85.4%. Further, the viability, T/C (compound 0.01 µM) was 45.2% and 56.9%. Besides, the viability, T/C (compound 0.0316 µM) was 11.5% and 15.2%. Besides, the viability, T/C (compound 0.1 µM) was 7.98% and 6.59%. For the same compound, the viability, T/C (compound 0.316 µM) was 7.2% and 6.31%. For the setting “compound 1 µM”, the viability, T/C was 6.67% and 5.78%.
Regarding `Cc1nc(NC(=O)N2CCCC2C(N)=O)sc1-c1ccnc(C(C)(C)C(F)(F)F)c1` (stereo not given), the pIC50 is 6.55 and 6.60. Moreover, the viability, T/C (compound 0.0316 µM) was 87.3% and 95.4%. In addition, for the setting “compound 0.1 µM”, the viability, T/C is 81.1% and 75.3%. The viability, T/C (compound 0.316 µM) is 46.4% and 43.7%. Under “compound 1 µM”, the viability, T/C was 18.9% and 22.8%. Moreover, for the setting “compound 3.16 µM”, the viability, T/C is 14% and 15.1%. Besides, the viability, T/C (compound 10 µM) was 11.2% and 14.1%.
Consider `Cn1cnc2c(F)c(Nc3ccc(Br)cc3Cl)c(C(=O)NOCCO)cc21`, for which the viability, T/C (compound 0.00949 µM) is 54.9% and 51.1%; the viability, T/C (compound 0.03 µM) was 47.6% and 37.5%; the viability, T/C (compound 0.0949 µM) was 49.2% and 43%; the viability, T/C (compound 0.3 µM) is 58.2% and 42.2%; the viability, T/C (compound 0.949 µM) was 37.5% and 27.2%; the viability, T/C (compound 3 µM) was 12.6% and 11.1%.
For the compound `Cn1ncc(Cl)c1-c1cc(C(=O)NC(CN)Cc2cccc(F)c2)sc1Cl` (stereo not given), the pIC50 was 6.70 and 6.77. The viability, T/C (compound 0.0316 µM) was 90% and 71.9%. Further, the viability, T/C (compound 0.1 µM) is 64.6% and 67%. For the same compound, the viability, T/C (compound 0.316 µM) was 43% and 30.5%. Further, the viability, T/C (compound 1 µM) is 10.9% and 16.7%. In addition, the viability, T/C (compound 3.16 µM) was 7.08% and 7.12%. The viability, T/C (compound 10 µM) is 0.13% and 0.32%.
Take `Cn1nccc1Nc1nccc(-c2ccn(C(CO)c3ccc(Cl)c(F)c3)c(=O)c2)n1` (stereo not given): the viability, T/C is 50.1% and 54.6% (compound 0.0316 µM); 42.6% and 45.7% (compound 0.1 µM); 57.2% and 49.9% (compound 0.316 µM); 44.4% and 49.7% (compound 1 µM); 29% and 30.1% (compound 3.16 µM); 19.7% and 21.3% (compound 10 µM).
Regarding `Cn1ncnc1[C@H]1c2n[nH]c(=O)c3cc(F)cc(c23)N[C@@H]1c1ccc(F)cc1`, the pIC50 was less than 7.00. The viability, T/C (compound 0.000316 µM) was 96.5% and 98.7%. In addition, the viability, T/C (compound 0.001 µM) was 100% and 99.5%. The viability, T/C (compound 0.00316 µM) was 94.5% and 104%. Further, the viability, T/C (compound 0.01 µM) is 94.8% and 100%. Further, the viability, T/C (compound 0.0316 µM) was 83.4% and 81.5%. In addition, the viability, T/C (compound 0.1 µM) is 75.5% and 78.4%.
